Data published in ChEMBL document CHEMBL1909046, “DrugMatrix in vitro pharmacology data”.

Key:
[1] = DRUGMATRIX: Tumor Necrosis Factor (TNF), Non-Selective radioligand binding (ligand: [125I] TNF-alpha); type: cell membranes, Membrane; conditions: u-937; Not Active = under 50% inhibition at 10 µM
[2] = DRUGMATRIX: Atrial Natriuretic Factor (ANF) radioligand binding (ligand: [125I] ANF (rat)); type: cell membranes, Cavia porcellus, Dunkin-Hartley, Adrenal gland, Membrane; conditions: Not Active = under 50% inhibition at 10 µM
[3] = target: Mitogen-activated protein kinase 14 (Homo sapiens, UniProt Q16539); set-up: species or system Escherichia coli;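 further: inhibition of p38alpha enzyme activity in a biochemical kinase assay, with myelin basic protein serving as substrate; in other assays of this panel Not Active means under 50% inhibition at 10 µM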
Mitogen-activated protein kinase 14, sequence (Q16539 whole entry): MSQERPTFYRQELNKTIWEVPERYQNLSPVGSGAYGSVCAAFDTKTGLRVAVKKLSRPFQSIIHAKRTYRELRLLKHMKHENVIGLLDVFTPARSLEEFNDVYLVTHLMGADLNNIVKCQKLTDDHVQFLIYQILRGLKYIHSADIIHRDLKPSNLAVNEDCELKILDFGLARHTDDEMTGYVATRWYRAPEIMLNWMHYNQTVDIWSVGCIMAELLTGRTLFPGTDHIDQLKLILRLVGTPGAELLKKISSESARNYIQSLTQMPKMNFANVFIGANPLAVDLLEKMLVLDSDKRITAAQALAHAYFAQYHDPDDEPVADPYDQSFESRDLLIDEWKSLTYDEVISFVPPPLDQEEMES

[4] = target: T1, Muscarinic acetylcholine receptor M4 (Homo sapiens, UniProt P08173); type: cell membranes, CHO-K1, Membrane; conditions: cho-k1; further: in other assays of this panel Not Active means under 50% inhibition at 10 µM
T1 sequence (P08173 whole entry): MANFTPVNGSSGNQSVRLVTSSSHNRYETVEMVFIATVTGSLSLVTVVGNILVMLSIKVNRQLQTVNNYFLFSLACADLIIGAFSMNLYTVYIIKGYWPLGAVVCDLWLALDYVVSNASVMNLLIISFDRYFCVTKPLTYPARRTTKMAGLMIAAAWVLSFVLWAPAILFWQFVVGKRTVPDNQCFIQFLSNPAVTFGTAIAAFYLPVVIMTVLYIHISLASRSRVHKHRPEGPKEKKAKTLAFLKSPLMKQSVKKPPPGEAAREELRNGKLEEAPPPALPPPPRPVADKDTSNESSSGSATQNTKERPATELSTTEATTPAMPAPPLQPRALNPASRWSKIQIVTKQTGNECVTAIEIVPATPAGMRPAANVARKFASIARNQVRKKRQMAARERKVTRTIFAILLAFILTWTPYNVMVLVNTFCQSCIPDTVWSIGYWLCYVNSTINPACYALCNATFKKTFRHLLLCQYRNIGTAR

[5] = target: Sodium-dependent dopamine transporter (Homo sapiens, UniProt Q01959); experiment: DRUGMATRIX: Dopamine Transporter radioligand binding (ligand: [125I] RTI-55); type: cell membranes, CHO-K1, Membrane; conditions: Not Active = under 50% inhibition at 10 µM
Sodium-dependent dopamine transporter, sequence (Q01959 whole entry): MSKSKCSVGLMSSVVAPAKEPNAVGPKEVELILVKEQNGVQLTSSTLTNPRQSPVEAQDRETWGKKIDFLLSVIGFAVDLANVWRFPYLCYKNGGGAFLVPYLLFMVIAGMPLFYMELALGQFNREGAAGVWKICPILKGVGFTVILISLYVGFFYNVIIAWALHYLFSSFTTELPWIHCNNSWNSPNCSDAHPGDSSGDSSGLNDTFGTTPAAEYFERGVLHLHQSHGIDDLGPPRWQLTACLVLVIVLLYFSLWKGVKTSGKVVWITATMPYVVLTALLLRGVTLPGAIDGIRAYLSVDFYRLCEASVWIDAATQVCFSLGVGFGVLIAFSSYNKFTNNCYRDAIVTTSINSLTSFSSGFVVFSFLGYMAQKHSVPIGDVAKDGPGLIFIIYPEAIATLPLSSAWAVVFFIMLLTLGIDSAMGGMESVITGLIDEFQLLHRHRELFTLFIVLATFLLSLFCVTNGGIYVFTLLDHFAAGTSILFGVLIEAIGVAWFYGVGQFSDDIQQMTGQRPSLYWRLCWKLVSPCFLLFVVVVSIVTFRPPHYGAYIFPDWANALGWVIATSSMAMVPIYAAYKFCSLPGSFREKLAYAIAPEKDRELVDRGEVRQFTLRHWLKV

[6] = target: T2, 5-hydroxytryptamine receptor 2C (Homo sapiens, UniProt P28335); experiment: DRUGMATRIX: Serotonin (5-Hydroxytryptamine) 5-HT2C radioligand binding (ligand: [3H] Mesulergine); type: cell membranes, CHO-K1, Membrane; conditions: Not Active = under 50% inhibition at 10 µM
T2 sequence (P28335 whole entry): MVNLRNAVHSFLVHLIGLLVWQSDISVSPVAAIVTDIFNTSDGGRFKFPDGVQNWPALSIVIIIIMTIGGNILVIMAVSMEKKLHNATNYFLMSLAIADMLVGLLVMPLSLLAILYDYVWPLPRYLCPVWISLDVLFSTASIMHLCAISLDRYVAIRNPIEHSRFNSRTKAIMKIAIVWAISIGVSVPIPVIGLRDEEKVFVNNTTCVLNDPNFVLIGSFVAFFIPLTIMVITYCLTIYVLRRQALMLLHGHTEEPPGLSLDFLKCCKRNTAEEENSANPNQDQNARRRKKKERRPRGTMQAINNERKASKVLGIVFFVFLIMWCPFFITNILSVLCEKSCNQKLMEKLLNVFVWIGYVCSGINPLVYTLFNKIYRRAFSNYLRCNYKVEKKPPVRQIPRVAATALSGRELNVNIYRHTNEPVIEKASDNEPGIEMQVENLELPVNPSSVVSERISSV

| Molecule | IC50 [1] | Ki [1] | IC50 [2] | Ki [2] | IC50 [3] | Ki [3] | IC50 [4] | Ki [4] | IC50 ([5]; cho-k1) | Ki ([5]; cho-k1) | IC50 ([6]; cho-k1) | Ki ([6]; cho-k1) | IC50 ([5]; read-out: IC50) [nM] | Ki ([5]; read-out: Ki) [nM] | IC50 ([6]; read-out: IC50) [nM] | Ki ([6]; read-out: Ki) [nM] |
| --- | --- | --- | --- | --- | --- | --- | --- | --- | --- | --- | --- | --- | --- | --- | --- | --- |
| POVIDONE | Not Active | Not Active | Not Active | Not Active | Not Active | Not Active | Not Active | Not Active | Not Active | Not Active | Not Active | Not Active | – | – | – | – |
| CN(Cc1cc(Br)cc(Br)c1N)C1CCCCC1 [BROMHEXINE] | Not Active | Not Active | Not Active | Not Active | Not Active | – | Not Active | – | Not Active | – | Not Active | – | – | – | – | – |
| Cc1ccnc2c1NC(=O)c1cccnc1N2C1CC1 [NEVIRAPINE] | Not Active | Not Active | Not Active | Not Active | Not Active | – | Not Active | – | Not Active | – | Not Active | – | – | – | – | – |
| CCN1CCN(C(=O)N[C@@H](C(=O)N[C@@H]2C(=O)N3[C@@H]2SC(C)(C)[C@@H]3C(=O)O)c2ccccc2)C(=O)C1=O [PIPERACILLIN] | Not Active | Not Active | Not Active | Not Active | Not Active | – | Not Active | – | Not Active | – | Not Active | – | – | – | – | – |
| O=C(O)c1ccccc1 [BENZOIC ACID] | Not Active | Not Active | Not Active | Not Active | Not Active | – | Not Active | – | Not Active | – | Not Active | – | – | – | – | – |
| CC[C@H]1OC(=O)[C@H](C)[C@@H](O[C@H]2C[C@@](C)(OC)[C@@H](O)[C@H](C)O2)[C@H](C)[C@@H](O[C@@H]2O[C@H](C)C[C@H](N(C)C)[C@H]2O)[C@](C)(O)C[C@@H](C)C(=O)[C@H](C)[C@@H](O)[C@]1(C)O [ERYTHROMYCIN] | Not Active | Not Active | Not Active | Not Active | Not Active | – | Not Active | – | Not Active | – | Not Active | – | – | – | – | – |
| c1ccc2c(c1)Nc1ccccc1S2 [PHENOTHIAZINE] | Not Active | Not Active | Not Active | Not Active | Not Active | – | Not Active | – | – | – | – | – | 18600 | 14800 | 2240 | 1170 |
| CHROMIC CHLORIDE | Not Active | Not Active | Not Active | Not Active | Not Active | Not Active | Not Active | Not Active | Not Active | Not Active | Not Active | Not Active | – | – | – | – |
| Cl.NC[C@H]1CC[C@H](C(=O)Oc2ccc(CCC(=O)O)cc2)CC1 [CETRAXATE HYDROCHLORIDE] | Not Active | Not Active | Not Active | Not Active | Not Active | – | Not Active | – | Not Active | – | Not Active | – | – | – | – | – |
| O=c1[nH]c2ccccc2c2ccccc12 | Not Active | Not Active | Not Active | Not Active | Not Active | – | Not Active | – | Not Active | – | Not Active | – | – | – | – | – |
| C[C@H](C(=O)O)c1ccc2oc(-c3ccc(F)cc3)nc2c1 [FLUNOXAPROFEN] | Not Active | Not Active | Not Active | Not Active | Not Active | – | Not Active | – | Not Active | – | Not Active | – | – | – | – | – |
| O=C(O)CNCP(=O)(O)O [GLYPHOSATE] | Not Active | Not Active | Not Active | Not Active | Not Active | – | Not Active | – | Not Active | – | Not Active | – | – | – | – | – |
| C[N+](C)(C)CCOC(N)=O.[Cl-] [CARBACHOL] | Not Active | Not Active | Not Active | Not Active | Not Active | – | Not Active | – | Not Active | – | Not Active | – | – | – | – | – |
| O=C(O)CCc1nc(-c2ccccc2)c(-c2ccccc2)o1 [OXAPROZIN] | Not Active | Not Active | Not Active | Not Active | Not Active | – | Not Active | – | Not Active | – | Not Active | – | – | – | – | – |
| CC(=O)[C@]1(O)Cc2c(O)c3c(c(O)c2[C@@H](O[C@H]2C[C@H](N)[C@H](O)[C@H](C)O2)C1)C(=O)c1ccccc1C3=O [IDARUBICIN] | Not Active | Not Active | Not Active | Not Active | Not Active | – | Not Active | – | Not Active | – | Not Active | – | – | – | – | – |
| NS(=O)(=O)c1cc(C(=O)O)c(NCc2ccco2)cc1Cl [FUROSEMIDE] | Not Active | Not Active | Not Active | Not Active | Not Active | – | Not Active | – | Not Active | – | Not Active | – | – | – | – | – |
| O=C1CN(/N=C/c2ccc([N+](=O)[O-])o2)C(=O)N1 [NITROFURANTOIN] | Not Active | Not Active | Not Active | Not Active | Not Active | – | Not Active | – | Not Active | – | Not Active | – | – | – | – | – |
| CARBOXYMETHYLCELLULOSE | Not Active | Not Active | Not Active | Not Active | Not Active | Not Active | Not Active | Not Active | Not Active | Not Active | Not Active | Not Active | – | – | – | – |
| c1ccc2sc(SSc3nc4ccccc4s3)nc2c1 [BENZOTHIAZYL DISULFIDE] | Not Active | Not Active | Not Active | Not Active | Not Active | – | Not Active | – | – | – | Not Active | – | 245 | 194 | – | – |
| CC12CCC(CC1)C(C)(C)O2 [EUCALYPTOL] | Not Active | Not Active | Not Active | Not Active | Not Active | – | Not Active | – | Not Active | – | Not Active | – | – | – | – | – |
| CC(=O)Nc1ccc2c(c1)Cc1ccccc1-2 [2-ACETYLAMINOFLUORENE] | Not Active | Not Active | Not Active | Not Active | Not Active | – | Not Active | – | Not Active | – | – | – | – | – | 2140 | 1120 |
| CCN1C[C@]2(COC)[C@H](O)C[C@H](OC)[C@@]34[C@@H]5C[C@@]6(O)[C@H](OC(=O)c7ccccc7)[C@@H]5[C@@](OC(C)=O)([C@@H]([C@H](OC)[C@H]23)[C@@H]14)[C@@H](O)[C@@H]6OC [ACONITINE] | Not Active | Not Active | Not Active | Not Active | Not Active | – | Not Active | – | Not Active | – | Not Active | – | – | – | – | – |
| COc1ccccc1OCCNCC(O)COc1cccc2[nH]c3ccccc3c12 (stereo unspecified) [CARVEDILOL] | Not Active | Not Active | Not Active | Not Active | Not Active | – | Not Active | – | – | – | – | – | 845 | 671 | 115 | 60 |
| CC(N)Cc1c[nH]c2ccc(OCc3cccs3)cc12 (stereo unspecified) [BW-723C86] | Not Active | Not Active | Not Active | Not Active | Not Active | – | Not Active | – | – | – | – | – | 2680 | 2130 | 204 | 107 |
| C=C(Cl)Cl [1,1-DICHLOROETHENE] | Not Active | Not Active | Not Active | Not Active | Not Active | – | Not Active | – | Not Active | – | Not Active | – | – | – | – | – |
| Nc1ccc(Cc2ccc(N)cc2)cc1 | Not Active | Not Active | Not Active | Not Active | Not Active | – | Not Active | – | Not Active | – | Not Active | – | – | – | – | – |
| Nc1nc(N)c2nc(CNc3ccc(C(=O)N[C@@H](CCC(=O)O)C(=O)O)cc3)cnc2n1 [AMINOPTERIN] | Not Active | Not Active | Not Active | Not Active | Not Active | – | Not Active | – | Not Active | – | Not Active | – | – | – | – | – |
